Measured values as given in PubChem BioAssay AID330 (DTP/NCI, 2004).
Several values for one entry are separate records, joined by “and”; a condition that tells them apart may be missing. Equal entries are not always repeated. Toxic doses and inconclusive results are not listed. The calls were made as follows: active = survival T/C of 150% or more; inactive = T/C below 125% in these data.

Tested on: P388 leukemia ip, CD2F1 mice, survival T/C
Assay: NCI In Vivo Anticancer Drug Screen. Data for tumor model P388 Leukemia (intraperitoneal) in CD2F1 (CDF1) mice
Conditions: endpoint: median survival time, higher = longer survival
Method in brief: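 Mice carrying the transplanted tumor received test compound or vehicle. Survival was recorded in each group, and the value is the treated-group measurement divided by that of the vehicle-treated control group.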

[1] = dose: 60.0 mg/kg/injection, schedule: Q01DX005 (ip), vehicle: saline with Tween-80
[2] = dose: 120.0 mg/kg/injection, schedule: Q01DX005 (ip), vehicle: saline with Tween-80
[3] = dose: 240.0 mg/kg/injection, schedule: Q01DX005 (ip), vehicle: saline with Tween-80
[4] = dose: 25.0 mg/kg/injection, schedule: Q01DX009 (ip), vehicle: saline with Tween-80
[5] = dose: 50.0 mg/kg/injection, schedule: Q01DX009 (ip), vehicle: saline with Tween-80
[6] = dose: 100.0 mg/kg/injection, schedule: Q01DX009 (ip), vehicle: saline with Tween-80
[7] = dose: 200.0 mg/kg/injection, schedule: Q01DX009 (ip), vehicle: saline with Tween-80
[8] = dose: 50.0 mg/kg/injection, schedule: Q01DX005 (ip), vehicle: saline with Tween-80
[9] = dose: 100.0 mg/kg/injection, schedule: Q01DX005 (ip), vehicle: saline with Tween-80
[10] = dose: 200.0 mg/kg/injection, schedule: Q01DX005 (ip), vehicle: saline with Tween-80
[11] = dose: 7.5 mg/kg/injection, schedule: Q01DX005 (ip), vehicle: saline with Tween-80
[12] = dose: 15.0 mg/kg/injection, schedule: Q01DX005 (ip), vehicle: saline with Tween-80
[13] = dose: 100.0 mg/kg/injection, schedule: Q01DX009 (ip), vehicle: saline
[14] = dose: 200.0 mg/kg/injection, schedule: Q01DX009 (ip), vehicle: saline
[15] = dose: 3.12 mg/kg/injection, schedule: Q01DX009 (ip), vehicle: water
[16] = dose: 6.25 mg/kg/injection, schedule: Q01DX009 (ip), vehicle: water
[17] = dose: 12.5 mg/kg/injection, schedule: Q01DX009 (ip), vehicle: water
[18] = dose: 30.0 mg/kg/injection, schedule: Q01DX005 (ip), vehicle: saline with Tween-80

Measured: T/C

COc1cc2c(CCNC(C)=O)csc2cc1Cl
inactive: [1] 97 % of control | [2] 99 % of control | [3] 105 % of control

COP(=O)(OC)C(=[N+]=[N-])P(=O)(OC(C)C)OC(C)C
inactive: dose: 100.0 mg/kg/injection, schedule: Q01DX001 (ip), vehicle: saline 99 % of control | dose: 200.0 mg/kg/injection, schedule: Q01DX001 (ip), vehicle: saline 101 % of control | dose: 400.0 mg/kg/injection, schedule: Q01DX001 (ip), vehicle: saline 100 % of control

Cc1ccc(/C=N/NC(N)=S)s1
inactive: dose: 12.5 mg/kg/injection, schedule: Q01DX009 (ip), vehicle: saline with Tween-80 100 % of control | [4] 108 % of control | [5] 107 % of control | [6] 106 % of control

O=C1OC(Nc2ccccc2)C(Cl)=C1Cl (stereo not given)
inactive: [1] 102 % of control | [2] 104 % of control | [3] 103 % of control

COc1cccc2c1C(=O)c1c(O)c3c(c(O)c1C2=O)CC(O)(C(=O)CO)CC3OC1CC(N/C(C)=C/C(C)=O)C(O)C(C)O1 (stereo not given)
active: dose: 10.0 mg/kg/injection, schedule: Q04DX003 (ip), vehicle: saline with Tween-80 160 % of control

NC(=O)C1CCCCC1C(N)=O (stereo not given)
inactive: [6] 100 % of control | [7] 104 % of control | dose: 400.0 mg/kg/injection, schedule: Q01DX009 (ip), vehicle: saline with Tween-80 104 % of control

CCOC(=O)C1=C(/C=C/c2cccc(Cl)c2)O/C(=C/c2cccc(Cl)c2)C1=O
inactive: [8] 87 % of control | [9] 96 % of control | [10] 106 % of control

CCN(CC)CCCC(C)Nc1cc(/C=C/c2ccc(Cl)cc2)nc2ccc(N(C)C)cc12 (stereo not given)
inactive: [11] 100 % of control | [12] 104 % of control

CS(=O)(=O)OC1COC(c2ccccc2)OC1C1OC(c2ccccc2)OCC1OS(C)(=O)=O (stereo not given)
inactive: dose: 100.0 mg/kg/injection, schedule: Q01DX001 (ip), vehicle: Klucel (hydroxypropylcellulose) (HPC) 92 % of control | dose: 200.0 mg/kg/injection, schedule: Q01DX001 (ip), vehicle: Klucel (hydroxypropylcellulose) (HPC) 101 % of control | dose: 400.0 mg/kg/injection, schedule: Q01DX001 (ip), vehicle: Klucel (hydroxypropylcellulose) (HPC) 99 % of control

CCOP(=O)(Cc1ccc(-c2nc3ccccc3o2)cc1)OCC
inactive: dose: 50.0 mg/kg/injection, schedule: Q01DX009 (ip), vehicle: saline 103 % of control | [13] 100 % of control | [14] 99 % of control

CC1OC(OCc2ccc3c(c2)C(=O)c2ccccc2C3=O)CC(N)C1O (stereo not given)
inactive: dose: 1.56 mg/kg/injection, schedule: Q01DX009 (ip), vehicle: water 105 % of control | [15] 104 % of control | [16] 100 % of control | [17] 100 % of control | dose: 25.0 mg/kg/injection, schedule: Q01DX009 (ip), vehicle: water 103 % of control | dose: 50.0 mg/kg/injection, schedule: Q01DX009 (ip), vehicle: water 92 % of control

CCCC(Cc1ccccc1)C(=O)O (stereo not given)
inactive: dose: 100.0 mg/kg/injection, schedule: Q01DX001 (ip), vehicle: saline with Tween-80 123 % of control | dose: 200.0 mg/kg/injection, schedule: Q01DX001 (ip), vehicle: saline with Tween-80 108 % of control | dose: 400.0 mg/kg/injection, schedule: Q01DX001 (ip), vehicle: saline with Tween-80 124 % of control

CCn1c2ccccc2n2c(=O)c(Cc3ccccc3)c(C)c(C#N)c12
inactive: [12] 92 % of control | [18] 91 % of control | [1] 88 % of control and 89 % of control | [3] 86 % of control

COc1ccc(C2=Nc3ccccc3SC(c3ccc(OC)cc3)C2)cc1 (stereo not given)
inactive: dose: 50.0 mg/kg/injection, schedule: Q01DX009 (ip), vehicle: Klucel (hydroxypropylcellulose) (HPC) 102 % of control | dose: 100.0 mg/kg/injection, schedule: Q01DX009 (ip), vehicle: Klucel (hydroxypropylcellulose) (HPC) 96 % of control | dose: 200.0 mg/kg/injection, schedule: Q01DX009 (ip), vehicle: Klucel (hydroxypropylcellulose) (HPC) 88 % of control

C[N+](C)(CC(=O)Nc1cccc(C(F)(F)F)c1)CC(=O)Nc1cccc(C(F)(F)F)c1
inactive: dose: 3.13 mg/kg/injection, schedule: Q01DX009 (ip), vehicle: saline sonified 100 % of control | dose: 6.25 mg/kg/injection, schedule: Q01DX009 (ip), vehicle: saline sonified 104 % of control | dose: 12.5 mg/kg/injection, schedule: Q01DX009 (ip), vehicle: saline sonified 109 % of control

CNC(=O)N(N=O)c1[nH]c(=O)ncc1Cl
inactive: [1] 116 % of control | [2] 116 % of control

CN(C)CCC(=O)C(=Cc1ccco1)C(=O)CCN(C)C
inactive: dose: 60.0 mg/kg/injection, schedule: Q01DX005 (ip), vehicle: saline 100 % of control | dose: 120.0 mg/kg/injection, schedule: Q01DX005 (ip), vehicle: saline 104 % of control | dose: 240.0 mg/kg/injection, schedule: Q01DX005 (ip), vehicle: saline 109 % of control

COc1cc[n+]([O-])cc1
inactive: [13] 95 % of control | [14] 90 % of control | dose: 400.0 mg/kg/injection, schedule: Q01DX009 (ip), vehicle: saline 95 % of control

O=C1C=CC(=O)C(CC2CCCC2C2=CC(=O)C=CC2=O)=C1 (stereo not given)
inactive: dose: 6.25 mg/kg/injection, schedule: Q04DX002 (ip), vehicle: saline with Tween-80 109 % of control | dose: 12.5 mg/kg/injection, schedule: Q04DX002 (ip), vehicle: saline with Tween-80 101 % of control | dose: 25.0 mg/kg/injection, schedule: Q04DX002 (ip), vehicle: saline with Tween-80 99 % of control and 109 % of control

C[n+]1c2ccccc2c2c3c(cccc31)C(=O)c1cc(Cl)ccc1-2 (tested in a mixture with another compound)
inactive: [15] 106 % of control | [16] 98 % of control | [17] 98 % of control

CC(=O)O[C@H]1CC[C@@]2(C)C(CC[C@]3(C)C2CC=C2[C@@H]4CC(C)(C)CC[C@]4(C(=O)NCCN(C)C)CCC23C)C1(C)C (stereo not given in full)
inactive: [11] 99 % of control | [12] 100 % of control | [18] 99 % of control | [1] 103 % of control

CSc1cccc([N+](=O)[O-])c1
inactive: [13] 95 % of control | [14] 87 % of control

O=C1C=C2SCCN2C(=O)C1
inactive: [4] 101 % of control | [5] 92 % of control | [6] 97 % of control | [7] 99 % of control

O=C(Nc1cccc2c1C(=O)c1c(NC(=O)c3ccccc3)ccc(Nc3cccc4c3C(=O)c3ccccc3C4=O)c1C2=O)c1ccccc1
inactive: [8] 100 % of control | [9] 103 % of control | [10] 103 % of control

COc1cc([N+](=O)[O-])c(S(=O)(=O)O)cc1NS(=O)(=O)c1ccc(C)cc1
inactive: [1] 110 % of control | [2] 101 % of control | [3] 97 % of control

C=C(OC)C(Nc1cc(OC)c(OC)cc1C(=O)OC1CC(O[C@@H]2C(=O)C(NC(=O)OC)=C3/C(=C\CSSSC)[C@]2(O)C#C/C=C\C#C[C@@H]3OC2OC(C)C(NOC3CC(O)C(SC)C(C)O3)C(O)C2OC2CC(OC)C(NCCC)CO2)OC(C)C1O)OC (stereo not given in full)
inactive: dose: 2.5 micrograms/kg/injection, schedule: Q01DX005 (ip), vehicle: saline + alcohol 88 % of control | dose: 2.5 nanograms/kg/injection, schedule: Q01DX005 (ip), vehicle: saline + alcohol 120 % of control | dose: 5.0 nanograms/kg/injection, schedule: Q01DX005 (ip), vehicle: saline + alcohol 118 % of control | dose: 5.12 micrograms/kg/injection, schedule: Q01DX005 (ip), vehicle: alcohol 115 % of control | dose: 10.0 nanograms/kg/injection, schedule: Q01DX005 (ip), vehicle: saline + alcohol 123 % of control | dose: 1280.0 nanograms/kg/injection, schedule: Q01DX005 (ip), vehicle: saline + alcohol 95 % of control
active: dose: 1.28 micrograms/kg/injection, schedule: Q01DX005 (ip), vehicle: alcohol 163 % of control | dose: 2.56 micrograms/kg/injection, schedule: Q01DX005 (ip), vehicle: alcohol 155 % of control and 177 % of control | dose: 320.0 nanograms/kg/injection, schedule: Q01DX005 (ip), vehicle: saline + alcohol 164 % of control | dose: 640.0 nanograms/kg/injection, schedule: Q01DX005 (ip), vehicle: saline + alcohol 174 % of control

CCCCCC1NC(C)(C)CO1 (stereo not given)
inactive: dose: 50.0 mg/kg/injection, schedule: Q01DX005 (ip), vehicle: saline 118 % of control | dose: 100.0 mg/kg/injection, schedule: Q01DX005 (ip), vehicle: saline 109 % of control | dose: 200.0 mg/kg/injection, schedule: Q01DX005 (ip), vehicle: saline 100 % of control
